Source: patent US11229628B2, “TRPA1 and TRPV4 inhibitors and methods of using the same for organ-specific inflammation and itch” (Duke University, priority 2015, dated 2022)
Entries after “also recorded” stand apart in the source; their conditions may differ.

Experiments:
[1] = tested on: primary mouse epidermal keratinocytes (1° MK); experiment: UVB-evoked Ca++ signaling in primary mouse keratinocytes (fluo-4 imaging); format: cell-based
Procedure: Ca++ imaging of 1° MK was conducted following routine procedures. For UVB stimulation, a customized device was built. The system comprised a printed circuit board for electrical interconnects and mechanical support and an ultraviolet light-emitting diode (UV LED).
The operating wavelength was 295 nm (FIG. 2A), with a full-width half-max of 12 nm. The optical power was 500 mW. The focal point was aimed at the plane of the upper surface of the quartz coverslip, which was used to minimize UV absorption along the optical path towards the cells (FIG. 2A-C). The optical intensity at the focal point was estimated to be 150 mW/mm^2.
(§1) Ca++ imaging of mouse 1° MK in response to chemical activation of TRPV4 was conducted after loading with 2 μM fura2-AM, following a ratiometric Ca2+ imaging protocol with 340/380 nm […] for dual excitation. Ratios of emissions were acquired at 0.5 Hz. ΔR/R0 was determined as the fraction of the increase of a given ratio over baseline ratio, divided by baseline ratio. For stimulation of cells with UVB, where fura-2 was not suitable because of the proximity of stimulation with 340/380 nm and 295 nm, 2 μM fluo4-AM was used instead. Ca++ imaging was carried out at 488 nm excitation, acquisition of emissions at 0.5 Hz, expressed as ΔF/F0. In the custom-built UV optical system, UV LEDs were capped with a ball lens, a transparent optical window in the shape of a hemispherical lens (FIG. 2B). The LED output optical beam focused at 15-20 mm from the lens, with a spot diameter of approximately 1.5˜2.0 mm (FIG. 2C). […] The thermal equilibration stage was set for physiological temperature.
To further dissect the underlying mechanisms involved, we built a customized device for specific and narrow-band UVB stimulation of primary mouse epidermal keratinocytes (1° MK) cultured in vitro (FIG. 6A-B and FIG. 2A-D). This allowed use of the Ca++ sensitive dye, fluo-4, and assessment of 1° MK's Ca++ dynamics following UVB exposure (FIG. 6B). The elicited Ca++ signal was obliterated by a UV-refracting glass coverslip, underscoring the strict dependence of the calcium response on UVB (FIG. 6C and FIG. 2A).

[2] = biological target: T1, TRPV4 (Mus musculus, UniProt Q9EPK8); experiment: GSK101-evoked Ca++ transient in 1° MK (fura-2); format: cell-based; conditions: 5 nM GSK101; 20 μM GSK205
T1 construct: Primary mouse keratinocytes were derived from back skin of newborn mice; endogenous in cells; host or cells: primary mouse epidermal keratinocytes (1° MK), wild type
Procedure: as §1, with “temperature. We confirmed the non-thermal nature of UVB stimulation using the customized 295 nm LED device in a dedicated experiment (FIG. 2D), thus confirming the specific modality of stimulation as UVB.” for “temperature.”
We obtained corroborating findings by chemically activating TRPV4 with GSK101, which can directly stimulate TRPV4 in WT 1° MK. […]

[3] = UVB permeation of foot-pad skin (sunscreen test); set-up: species or system mouse; conditions: topically applied; GSK205 5 mM
Procedure: The UV LED was powered with 20 mA of current, resulting in 500 μW of optical power in a circular focal spot 1.5 mm in diameter, with 70% of the total flux in a 0.5 mm beam radius. The UV optical power transmitted through the sample was detected by a Hamamatsu S127-66BR UV detector, and the output of the photodetector was measured using a Keithley 236 source measure unit. Next, the foot-pad epidermis of a mouse was measured for UV transmission by placing it on a quartz coverslip and exposure to the UV beam. The vehicle-control group was treated with the alcohol and glycerol solution only. Another control group consisted of a commercially-available SPF100 preparation sunscreen in form of a cream, which was applied similar to the vehicle-control. The data for the GSK205 and sunscreen was normalized to this control data.
To validate these finding, we tested UVB absorption in GSK205-treated paw-pad skin, and whether GSK205 thus functions as sunscreen.

[4] = biological target: TRPV4 (Homo sapiens, UniProt Q9HBA0); experiment: UVB-evoked Ca++ transient in TRPV4-transfected HEK293T cells; format: cell-based; set-up: expressed in transfected cells; host or cells: HEK293T cells; conditions: pre-exposure to 20 μM GSK205
Text: (B) Focusing properties of the ball lens. […] (E) TRPV3 activation experiment. […] (F) TRPV4 selective activator GSK101-related findings.
To assess whether TRPV4 is sufficient for the UVB-evoked Ca++ influx, we introduced high levels of TRPV4 into HEK293 epithelial cells. TRPV4 expression endowed these cells with the ability to generate robust Ca++ signaling in response to UVB (FIG. 2G). Moreover, if they were pre-exposed to GSK205, the response was blocked. Thus, heterologous TRPV4 expression is sufficient for UVB radiation to cause a cellular Ca++ transient.

[5] = Stability on incubation in serum; format: in vitro ADME; conditions: 3 h and 12 h incubation in serum at 37° C.
Procedure: It was also tested whether compounds are readily broken down in systemic fluid, for which serum was used.

Chain of TRPV4 (Homo sapiens, UniProt Q9HBA0) (Q9HBA0 whole entry, species assumed): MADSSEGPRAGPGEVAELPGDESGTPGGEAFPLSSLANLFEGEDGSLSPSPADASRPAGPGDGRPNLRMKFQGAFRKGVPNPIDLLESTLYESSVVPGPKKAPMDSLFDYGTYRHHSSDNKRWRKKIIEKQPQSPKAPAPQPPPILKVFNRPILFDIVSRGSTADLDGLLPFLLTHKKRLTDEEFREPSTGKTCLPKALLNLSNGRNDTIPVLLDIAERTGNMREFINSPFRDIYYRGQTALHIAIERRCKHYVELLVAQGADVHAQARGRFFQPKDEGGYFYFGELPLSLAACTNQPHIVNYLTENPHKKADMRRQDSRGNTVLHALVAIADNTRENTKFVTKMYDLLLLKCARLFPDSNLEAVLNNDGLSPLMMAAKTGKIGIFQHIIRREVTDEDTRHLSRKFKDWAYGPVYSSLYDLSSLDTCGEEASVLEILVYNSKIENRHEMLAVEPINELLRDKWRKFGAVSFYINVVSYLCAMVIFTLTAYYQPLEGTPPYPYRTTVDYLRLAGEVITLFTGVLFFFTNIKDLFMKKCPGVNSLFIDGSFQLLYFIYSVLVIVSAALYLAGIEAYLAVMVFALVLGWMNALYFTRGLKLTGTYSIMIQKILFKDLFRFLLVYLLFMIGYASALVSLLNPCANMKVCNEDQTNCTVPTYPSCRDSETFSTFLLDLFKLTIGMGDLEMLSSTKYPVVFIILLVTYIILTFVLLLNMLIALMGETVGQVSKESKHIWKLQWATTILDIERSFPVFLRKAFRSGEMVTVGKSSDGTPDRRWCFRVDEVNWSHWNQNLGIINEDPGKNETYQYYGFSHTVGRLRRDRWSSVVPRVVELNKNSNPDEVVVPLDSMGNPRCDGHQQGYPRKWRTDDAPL
T1 sequence (Q9EPK8 whole entry): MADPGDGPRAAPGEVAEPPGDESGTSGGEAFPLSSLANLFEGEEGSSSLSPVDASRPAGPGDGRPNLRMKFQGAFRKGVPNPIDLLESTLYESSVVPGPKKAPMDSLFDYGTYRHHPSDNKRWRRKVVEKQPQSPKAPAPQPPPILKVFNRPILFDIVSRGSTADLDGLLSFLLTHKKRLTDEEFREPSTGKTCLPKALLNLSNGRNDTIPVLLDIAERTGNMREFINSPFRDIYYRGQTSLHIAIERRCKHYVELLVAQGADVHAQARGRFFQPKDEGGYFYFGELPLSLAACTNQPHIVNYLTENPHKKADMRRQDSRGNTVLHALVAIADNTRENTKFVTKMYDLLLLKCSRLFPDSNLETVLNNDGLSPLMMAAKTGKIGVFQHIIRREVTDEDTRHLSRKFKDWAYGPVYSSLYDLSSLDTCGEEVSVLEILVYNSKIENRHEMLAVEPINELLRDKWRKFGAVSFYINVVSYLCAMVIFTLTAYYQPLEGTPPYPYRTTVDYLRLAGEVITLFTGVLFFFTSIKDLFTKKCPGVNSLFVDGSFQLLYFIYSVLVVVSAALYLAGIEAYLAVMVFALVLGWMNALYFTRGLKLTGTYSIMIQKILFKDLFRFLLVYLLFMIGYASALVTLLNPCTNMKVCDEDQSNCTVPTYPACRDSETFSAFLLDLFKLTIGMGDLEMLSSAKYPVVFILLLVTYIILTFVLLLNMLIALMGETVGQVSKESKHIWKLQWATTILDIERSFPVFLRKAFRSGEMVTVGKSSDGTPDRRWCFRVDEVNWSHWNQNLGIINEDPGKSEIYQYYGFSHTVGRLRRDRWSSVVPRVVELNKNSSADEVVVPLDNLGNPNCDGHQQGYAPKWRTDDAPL

SMILES	ET1-augmented UVB-evoked Ca++ signaling ([1]; UVB and ET1 co-exposure)	UVB-evoked Ca++ signaling ([1]; fluo-4 ΔF/F0, GSK205 20 μM)	GSK101-evoked Ca++ transient [2]	UVB permeation of paw-pad skin [3]	UVB-evoked Ca++ signal in TRPV4-transfected HEK293T cells [4]	concentration of a fixed spiked amount after incubation in serum [5]
CN(CCc1ccc(Nc2nc(-c3cccnc3)cs2)cc1)Cc1ccccc1 [GSK205]	greatly diminished	very similar response to that of Trpv4−/− 1° MK; also recorded: strongly down-regulated; also recorded: significant attenuation	eliminated; also recorded: completely blocked	equal UVB permeation; also recorded: absence of a change in UVB permeation	blocked; also recorded: virtually eliminates	
CN(CCc1ccc(Nc2nc(-c3ccccc3)cs2)cc1)Cc1ccccc1 [Compound 16-8]						did not change
